The text below walks through data of ChEMBL document CHEMBL2157968, “Novel multipotent phenylthiazole-tacrine hybrids for the inhibition of cholinesterase activity, β-amyloid aggregation and Ca²⁺ overload” (Bioorg Med Chem, 2012).

What is called IC50 is the concentration at which inhibition is half-maximal. Read a high IC50 as weaker potency.

Calls of active or inactive are those of the source. No cut-off for these calls is given here.

The target in one assay is Acetylcholinesterase (Electrophorus electricus, UniProt O42275).
The target in another assay is Cholinesterase (Equus caballus, UniProt P81908).
A further assay has as its system Cerebral cortex neuron. The experiment in a line: Inhibition of KCl-induced Ca2+ overload in Sprague-Dawley rat primary cortical neurons assessed as reduction in F340/F380 fluorescence ratio at 1 uM by Fura-2/AM-based fluorescence assay. The format is functional, cell-based.
Assay [1] concerns the target Acetylcholinesterase (Electrophorus electricus) (UniProt O42275). Nature of the assay: Mixed type inhibition of electric eel AChE using acetylthiocholine chloride substrate incubated for 5 mins before substrate addition measured at 3 min interval by Lineweaver-Burk plot analysis.

Cholinesterase, sequence (P81908 whole entry): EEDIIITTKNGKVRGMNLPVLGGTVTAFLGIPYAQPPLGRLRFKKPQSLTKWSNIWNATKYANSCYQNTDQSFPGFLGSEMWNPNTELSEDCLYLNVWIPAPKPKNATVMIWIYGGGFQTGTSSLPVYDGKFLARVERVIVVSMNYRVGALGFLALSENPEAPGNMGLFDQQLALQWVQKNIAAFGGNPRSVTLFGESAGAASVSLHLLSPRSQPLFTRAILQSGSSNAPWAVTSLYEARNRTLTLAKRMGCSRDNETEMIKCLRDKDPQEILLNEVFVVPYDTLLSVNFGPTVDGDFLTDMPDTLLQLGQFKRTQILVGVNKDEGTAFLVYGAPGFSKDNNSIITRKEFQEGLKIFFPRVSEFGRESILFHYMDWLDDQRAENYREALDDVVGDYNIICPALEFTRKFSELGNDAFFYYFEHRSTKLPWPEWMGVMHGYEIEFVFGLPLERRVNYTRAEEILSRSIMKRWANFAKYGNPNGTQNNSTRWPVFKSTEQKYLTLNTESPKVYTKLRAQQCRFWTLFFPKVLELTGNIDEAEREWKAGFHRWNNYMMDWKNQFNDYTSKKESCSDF
Acetylcholinesterase, sequence (O42275 whole entry): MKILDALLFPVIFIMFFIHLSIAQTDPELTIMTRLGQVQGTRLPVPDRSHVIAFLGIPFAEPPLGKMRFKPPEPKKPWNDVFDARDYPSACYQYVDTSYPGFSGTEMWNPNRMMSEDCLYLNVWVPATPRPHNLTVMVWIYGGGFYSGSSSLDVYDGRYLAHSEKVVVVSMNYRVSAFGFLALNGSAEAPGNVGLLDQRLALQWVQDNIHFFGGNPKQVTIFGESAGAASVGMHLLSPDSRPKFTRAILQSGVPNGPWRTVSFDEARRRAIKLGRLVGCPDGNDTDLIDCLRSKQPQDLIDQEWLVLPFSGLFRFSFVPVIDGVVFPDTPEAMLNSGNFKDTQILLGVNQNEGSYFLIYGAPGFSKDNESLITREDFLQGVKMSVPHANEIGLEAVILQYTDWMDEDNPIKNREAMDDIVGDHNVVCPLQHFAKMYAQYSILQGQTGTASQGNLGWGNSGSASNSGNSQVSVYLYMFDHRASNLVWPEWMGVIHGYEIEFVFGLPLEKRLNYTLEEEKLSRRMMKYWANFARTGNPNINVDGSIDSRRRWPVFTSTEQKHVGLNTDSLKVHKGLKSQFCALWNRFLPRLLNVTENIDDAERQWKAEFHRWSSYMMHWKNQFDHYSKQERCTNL
Acetylcholinesterase (Electrophorus electricus), sequence (O42275 24-633 limits assumed): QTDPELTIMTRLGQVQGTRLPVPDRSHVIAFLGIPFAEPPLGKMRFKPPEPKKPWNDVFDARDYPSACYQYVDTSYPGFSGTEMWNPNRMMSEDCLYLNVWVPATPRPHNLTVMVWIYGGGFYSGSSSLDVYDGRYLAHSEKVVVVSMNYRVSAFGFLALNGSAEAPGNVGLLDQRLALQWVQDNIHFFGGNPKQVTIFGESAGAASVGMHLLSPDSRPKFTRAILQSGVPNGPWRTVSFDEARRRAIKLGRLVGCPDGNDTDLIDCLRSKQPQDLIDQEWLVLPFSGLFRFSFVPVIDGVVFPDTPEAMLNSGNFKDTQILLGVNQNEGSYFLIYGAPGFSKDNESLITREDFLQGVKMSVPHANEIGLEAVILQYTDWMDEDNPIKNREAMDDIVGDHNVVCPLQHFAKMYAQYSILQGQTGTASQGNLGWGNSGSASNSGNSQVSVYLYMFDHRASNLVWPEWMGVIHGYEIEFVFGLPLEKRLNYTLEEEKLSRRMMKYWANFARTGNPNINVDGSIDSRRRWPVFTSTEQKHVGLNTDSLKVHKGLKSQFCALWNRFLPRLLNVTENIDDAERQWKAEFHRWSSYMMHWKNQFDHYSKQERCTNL

For the molecule `CCN(CCCCNc1c2c(nc3ccccc13)CCCC2)CC(=O)Nc1nc(-c2ccc(Cl)cc2)cs1`, the values for the IC50 at Acetylcholinesterase and on Cholinesterase were 1620 nM and 77.6 nM, respectively.
Turning to `O=C(CCC(=O)Nc1nc(-c2ccccc2)cs1)NCCCCNc1c2c(nc3ccccc13)CCCC2`, the 50% inhibitory concentration (IC50) against Acetylcholinesterase is 490 nM; against Cholinesterase, 0.603 nM.
Regarding `O=C(CCCC(=O)Nc1nc(-c2ccccc2)cs1)NCCCNc1c2c(nc3ccccc13)CCCC2`, the IC50 was 380 nM on Acetylcholinesterase and 1780 nM on Cholinesterase.
Consider `CCN(CCCCCCNc1c2c(nc3ccccc13)CCCC2)CC(=O)Nc1nc(-c2ccc(OC)cc2)cs1`, for which the inhibition result in the assay with Cerebral cortex neuron was “inactive”. Also, the IC50 against Acetylcholinesterase is 158 nM; at Cholinesterase, 589 nM.
Turning to `CCN(CCCNc1c2c(nc3ccccc13)CCCC2)CC(=O)Nc1nc(-c2ccc(OC)cc2)cs1`, the IC50 against Acetylcholinesterase is 1380 nM; against Cholinesterase it was 275 nM.
For `O=C(CCCC(=O)Nc1nc(-c2ccccc2)cs1)NCCCCNc1c2c(nc3ccccc13)CCCC2`, the IC50 on Acetylcholinesterase is 282 nM; against Cholinesterase, 0.55 nM.
For `CCN(CCCNc1c2c(nc3ccccc13)CCCC2)CCC(=O)Nc1nc(-c2ccc(Cl)cc2)cs1`, the IC50 against Acetylcholinesterase is 1200 nM; at Cholinesterase, 4.17 nM.
Take `CCN(CCCCNc1c2c(nc3ccccc13)CCCC2)CCC(=O)Nc1nc(-c2ccc(Cl)cc2)cs1`: the figures for the IC50 against Acetylcholinesterase and at Cholinesterase were 120 nM and 45.7 nM, respectively.
On to `CCN(CCCNc1c2c(nc3ccccc13)CCCC2)CCC(=O)Nc1nc(-c2ccccc2)cs1`, for which the figures for the IC50 against Acetylcholinesterase and on Cholinesterase were 324 nM and 6.03 nM, respectively.
Taken in the same sequence, the figures for `CCN(CCCNc1c2c(nc3ccccc13)CCCC2)CCC(=O)Nc1nc(-c2ccc(OC)cc2)cs1` were 97.7 nM and 0.479 nM.
Taken in the same sequence, the figures for `CCN(CCCCNc1c2c(nc3ccccc13)CCCC2)CCC(=O)Nc1nc(-c2ccccc2)cs1` were 110 nM and 18.2 nM.
The matching figures for `CCN(CCCNc1c2c(nc3ccccc13)CCCC2)CC(=O)Nc1nc(-c2ccccc2)cs1`: 105 nM and 0.0447 nM.
For `O=C(CCC(=O)Nc1nc(-c2ccc(Cl)cc2)cs1)NCCCCNc1c2c(nc3ccccc13)CCCC2`, the IC50 against Acetylcholinesterase is 1350 nM; on Cholinesterase, 16.6 nM.
Regarding `O=C(CCC(=O)Nc1nc(-c2ccccc2)cs1)NCCCCCCNc1c2c(nc3ccccc13)CCCC2`, the inhibition result in assay [1] was “Active”. Further, the half-inhibitory concentration (IC50) on Acetylcholinesterase is 72.4 nM; at Cholinesterase, 0.355 nM.
In the case of `O=C(CCC(=O)Nc1nc2c(s1)CCCC2)NCCCCNc1c2c(nc3ccccc13)CCCC2`, the figures for the IC50 against Acetylcholinesterase and against Cholinesterase were 1260 nM and 363 nM, respectively.
Taken in the same sequence, the figures for `CCN(CCCCCCNc1c2c(nc3ccccc13)CCCC2)CC(=O)Nc1nc(-c2ccccc2)cs1` were 81.3 nM and 468 nM.
Taken in the same sequence, the figures for `CCN(CCCCNc1c2c(nc3ccccc13)CCCC2)CCC(=O)Nc1nc(-c2ccc(OC)cc2)cs1` were 288 nM and 6.61 nM.
With `CCN(CCCCNc1c2c(nc3ccccc13)CCCC2)CC(=O)Nc1nc(-c2ccccc2)cs1`, the results for the IC50 on Acetylcholinesterase and against Cholinesterase were 158 nM and 14.8 nM, respectively.
Taken in the same sequence, the figures for `CCN(CCCCNc1c2c(nc3ccccc13)CCCC2)CC(=O)Nc1nc(-c2ccc(OC)cc2)cs1` were 1660 nM and 20.4 nM.
